From patent US10821100B2, “Triazolone compounds as mPGES-1 inhibitors” (Glenmark Pharmaceuticals S.A., priority 2012, dated 2020) come the findings set out here.

Structures are written as SMILES. A value given as a limit tells only on which side of the number the result lay.

The target in this test is T1, Recombinant human mPGES-1 (Homo sapiens, UniProt O14684).
T1 construct: made in house; host or cells: CHO cells (crude microsomal fractions)
T1 sequence (O14684 1-152): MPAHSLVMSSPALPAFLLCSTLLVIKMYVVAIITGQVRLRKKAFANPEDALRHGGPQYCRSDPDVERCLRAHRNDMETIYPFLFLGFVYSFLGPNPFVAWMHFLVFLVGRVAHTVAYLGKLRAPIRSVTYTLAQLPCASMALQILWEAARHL
Briefly: In-vitro screening of mPGES-1 inhibitors (inhibition of PGE2 formation from PGH2, HTRF detection). Type of test: biochemical. The settings on record: mPGES-1 enzyme; for inhibition at 1 µM: 1 μM test compound, read-out: Percentage inhibition at 1 μM; for inhibition at 1 µM / inhibition at 10 µM: crude microsomal fractions; for inhibition at 10 µM: 10 μM test compound, read-out: Percentage inhibition at 10 μM; for IC50: class symbols. An outline of the steps: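 PGH2-to-PGE2 isomerization run for 1 min with 15 μM PGH2 after 10 min compound preincubation with microsomal enzyme (40–60 μg/mL) and 2.5 mM GSH, pH buffer 0.1 M potassium phosphate with EDTA. Stannous chloride quench, HTRF PGE2 readout, IC50 fitted against uninhibited reaction.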

Consider `O=C(NCC1CC1)c1ccc(-n2nc(-c3c(F)cccc3Cl)[nH]c2=O)cc1` [Example-17, 4-[3-(2-Chloro-6-fluorophenyl)-5-oxo-4,5-dihydro-1H-1,2,4-triazol-1-yl]-N-(cyclopropylmethyl)benzamide], for which the inhibition at 1 µM came to 2.52% and the inhibition at 10 µM stood at 44.1%.
As for `COc1cc(-n2nc(-c3c(F)cccc3Cl)[nH]c2=O)ccc1C(=O)Nc1nc2ccccc2[nH]1` [Example-46, N-(1H-Benzo[d]imidazol-2-yl)-4-(3-(2-chloro-6-fluorophenyl)-5-oxo-4,5-dihydro-1H-1,2,4-triazol-1-yl)-2-methoxybenzamide], the inhibition at 1 µM is 59.8% and the inhibition at 10 µM was found to be 72.1%.
`Cc1ccc(CNC(=O)[C@H]2CCCO2)c(C)c1-c1nn(-c2ccc(C(F)(F)F)cc2)c(=O)[nH]1` [Example-107, (R)—N-(2,4-Dimethyl-3-(5-oxo-1-(4-(trifluoromethyl)phenyl)-4,5-dihydro-1H-1,2,4-triazol-3-yl)benzyl)tetrahydrofuran-2-carboxamide]: the inhibition at 1 µM was determined as 56.1% and the inhibition at 10 µM came out at 90.5%.
Turning to `O=c1[nH]c(-c2c(F)cccc2Cl)nn1-c1ccc(C#Cc2ccc(C(F)(F)F)cc2Cl)cc1` [Example-7, 5-(2-Chloro-6-fluorophenyl)-2-(4-{[2-chloro-4-(trifluoromethyl)phenyl]ethynyl}phenyl)-2,4-dihydro-3H-1,2,4-triazol-3-one], the inhibition at 1 µM was found to be 89.1%, the inhibition at 10 µM was found to be 95.2% and the half-inhibitory concentration (IC50) was below 0.05 µM.
For the compound `O=C(NCc1ccc(Cl)c(-c2nn(-c3ccc(C(F)(F)F)cc3)c(=O)[nH]2)c1)c1ccno1` [Example-105, N-(4-Chloro-3-(5-oxo-1-(4-(trifluoromethyl)phenyl)-4,5-dihydro-H-1,2,4-triazol-3-yl)benzyl)isoxazole-5-carboxamide], the inhibition at 1 µM was 73.9%, the inhibition at 10 µM amounted to 96% and the IC50 was above 0.1 µM.
For the compound `Cc1cc(-n2nc(-c3cc(CNC(=O)C(C)C)ccc3Cl)[nH]c2=O)ccc1Cl` [Example-155, N-(4-Chloro-3-(1-(4-chloro-3-methylphenyl)-4,5-dihydro-5-oxo-1H-1,2,4-triazol-3-yl)benzyl)isobutyramide], the inhibition at 1 µM was determined as 99.7%, the inhibition at 10 µM is 97.1% and the IC50 was below 0.05 µM.
The matching figures for `COc1cc(-n2nc(-c3c(Cl)cccc3Cl)[nH]c2=O)ccc1C(=O)Nc1cc(C(F)(F)F)ccc1F` [Example-44, 4-(3-(2,6-Dichlorophenyl)-5-oxo-4,5-dihydro-1H-1,2,4-triazol-1-yl)-N-(2-fluoro-5-(trifluoromethyl)phenyl)-2-methoxybenzamide]: 97.4%, 99% and below 0.05 µM.
The like results for `CC(C)(C)C(=O)NCc1ccc(Cl)c(-c2nn(-c3ccc(C(F)(F)F)cn3)c(=O)[nH]2)c1F` [Example-94, N-(4-Chloro-2-fluoro-3-(5-oxo-1-(5-(trifluoromethyl)pyridin-2-yl)-4,5-dihydro-1H-1,2,4-triazol-3-yl)benzyl)pivalamide] were, in that order, 87%, 100% and above 0.1 µM.
In the case of `O=c1[nH]c(-c2c(F)cccc2Cl)nn1-c1ccc(C#Cc2ccc(N3CCOCC3)nc2)cc1` [Example-16, 5-(2-Chloro-6-fluorophenyl)-2-(4-{[6-(morpholin-4-yl)pyridin-3-yl]ethynyl}phenyl)-2,4-dihydro-3H-1,2,4-triazol-3-one], the inhibition at 1 µM amounted to 40.9% and the inhibition at 10 µM stood at 92.3%.
The matching figures for `O=C(NC1(c2ccccc2C(F)(F)F)CC1)c1ccc(-n2nc(-c3c(F)cccc3Cl)[nH]c2=O)cc1` [Example-24, 4-(3-(2-Chloro-6-fluorophenyl)-5-oxo-4,5-dihydro-1H-1,2,4-triazol-1-yl)-N-(1-(2-(trifluoromethyl)phenyl)cyclopropyl)benzamide]: 71% and 83.1%.
As to `COc1cc(-n2nc(-c3cc(CNC(=O)C4CC4)ccc3Cl)[nH]c2=O)ccc1C(=O)Nc1cccc(C(F)(F)F)c1` [Example-52, 4-(3-(2-Chloro-5-(cyclopropanecarboxamidomethyl)phenyl)-5-oxo-4,5-dihydro-1H-1,2,4-triazol-1-yl)-2-methoxy-N-(3-(trifluoromethyl)phenyl)benzamide], the inhibition at 1 µM is 96.4%, the inhibition at 10 µM turned out to be 98.3% and the IC50 is below 0.05 µM.
The matching figures for `Cc1ccc(CNC(=O)C(C)(C)C)c(C)c1-c1nn(-c2ccc(C(F)(F)F)cc2)c(=O)[nH]1` [Example-108, N-(3-(1-(4-(Trifluoromethyl)phenyl)-4,5-dihydro-5-oxo-1H-1,2,4-triazol-3-yl)-2,4-dimethylbenzyl)pivalamide]: 89.8%, 99.7% and above 0.1 µM.
As for `CC(C)(C)C(=O)NCc1ccc(Cl)c(-n2nc(-c3ccc(C(F)(F)F)cc3)[nH]c2=O)c1F` [Example-93, N-(4-Chloro-2-fluoro-3-(5-oxo-3-(4-(trifluoromethyl)phenyl)-4,5-dihydro-1H-1,2,4-triazol-1-yl)benzyl)pivalamide], the inhibition at 1 µM was determined as 96.8%, the inhibition at 10 µM is 99.6% and the IC50 is below 0.05 µM.
Take `CC(C)(C)C(=O)NCc1ccc(Cl)c(-n2nc(-c3ccc(C#CC4CC4)cc3)[nH]c2=O)c1` [Example-141, N-(4-Chloro-3-(3-(4-(2-cyclopropylethynyl)phenyl)-4,5-dihydro-5-oxo-1,2,4-triazol-1-yl)benzyl)pivalamide]: the inhibition at 1 µM was 97.6%, the inhibition at 10 µM came to 97.5% and the IC50 is below 0.05 µM.
With `CC(C)(C)C(=O)NCc1ccc(Cl)c(-c2nn(-c3ccc(Cl)c(Cl)c3)c(=O)[nH]2)c1F` [Example-83, N-(4-Chloro-3-(1-(3,4-dichlorophenyl)-5-oxo-4,5-dihydro-1H-1,2,4-triazol-3-yl)-2-fluorobenzyl)pivalamide], the inhibition at 1 µM was 97.5%, the inhibition at 10 µM was 99.9% and the IC50 is below 0.05 µM.
The matching figures for `COc1cc(-c2nn(-c3c(Cl)cccc3Cl)c(=O)[nH]2)ccc1C#Cc1cccc(Cl)c1F` [Example-74]: 93.2%, 98.7% and 0.05 to 0.1 µM.
The matching figures for `O=C(NCc1ccc(Cl)c(-c2nn(-c3ccc(C(F)(F)F)cc3)c(=O)[nH]2)c1)C(F)(F)F` [Example-99, N-(4-Chloro-3-(5-oxo-1-(4-(trifluoromethyl)phenyl)-4,5-dihydro-1H-1,2,4-triazol-3-yl)benzyl)-2,2,2-trifluoroacetamide]: 95.3%, 98.5% and below 0.05 µM.
Regarding `COc1cc(-n2nc(-c3c(F)cccc3Cl)[nH]c2=O)ccc1C(=O)Nc1cc(Cl)ccc1C` [Example-38, N-(5-Chloro-2-methylphenyl)-4-(3-(2-chloro-6-fluorophenyl)-5-oxo-4,5-dihydro-1H-1,2,4-triazol-1-yl)-2-methoxybenzamide], the inhibition at 1 µM was determined as 87.4%, the inhibition at 10 µM turned out to be 84.9% and the IC50 lay within 0.05 to 0.1 µM.
`COc1cc(-n2nc(-c3c(F)cccc3Cl)[nH]c2=O)ccc1C(=O)NC1(c2ccccc2C(F)(F)F)CC1` [Example-26, 4-(3-(2-Chloro-6-fluorophenyl)-5-oxo-4,5-dihydro-1H-1,2,4-triazol-1-yl)-2-methoxy-N-(1-(2-(trifluoromethyl)phenyl)cyclopropyl)benzamide]: the inhibition at 1 µM turned out to be 80.6%, the inhibition at 10 µM worked out at 88.1% and the concentration for half-maximal inhibition (IC50) is above 0.1 µM.
The like results for `O=C(NCc1ccc(Cl)c(-n2nc(-c3ccc(C#CC4CC4)cc3)[nH]c2=O)c1)C(F)(F)F` [Example-190, N-(4-Chloro-3-(3-(4-(cyclopropylethynyl)phenyl)-5-oxo-4,5-dihydro-1H-1,2,4-triazol-1-yl)benzyl)-2,2,2-trifluoroacetamide] were, in that order, 100%, 100% and below 0.05 µM.
The like results for `CC(C)(C)C(=O)NCc1cc(-c2nn(-c3ccc(F)c(Cl)c3)c(=O)[nH]2)c(Cl)cc1F` [Example-131, N-(4-Chloro-5-(1-(3-chloro-4-fluorophenyl)-4,5-dihydro-5-oxo-1H-1,2,4-triazol-3-yl)-2-fluorobenzyl)pivalamide] were, in that order, 100%, 99.2% and below 0.05 µM.
Regarding `Cn1ccnc1C(=O)NCc1ccc(Cl)c(-c2nn(-c3ccc(C(F)(F)F)cc3)c(=O)[nH]2)c1` [Example-110, N-(4-Chloro-3-(1-(4-(trifluoromethyl)phenyl)-4,5-dihydro-5-oxo-1H-1,2,4-triazol-3-yl)benzyl)-1-methyl-1H-imidazole-2-carboxamide], the inhibition at 1 µM was found to be 47.2% and the inhibition at 10 µM is 95.1%.
With `CC(C)(CF)C(=O)NCc1ccc(Cl)c(-c2nn(-c3ccc(C(F)(F)F)cc3)c(=O)[nH]2)c1` [Example-175, N-(4-Chloro-3-(1-(4-(trifluoromethyl)phenyl)-4,5-dihydro-5-oxo-1H-1,2,4-triazol-3-yl)benzyl)-3-fluoro-2,2-dimethylpropanamide], the inhibition at 1 µM is 99.4%, the inhibition at 10 µM was determined as 99.4% and the IC50 was below 0.05 µM.
